Laboratory results as given in patent US20190046539A1, “PROPHYLACTIC OR THERAPEUTIC AGENT FOR NEUROPATHIC PAIN ASSOCIATED WITH GUILLAIN-BARRE SYNDROME” (KYUSHU UNIVERSITY, priority 2011, published 2019).

Legend:
[1] = system: experimental autoimmune neuritis (EAN) rat model; test: Preventive administration, pain threshold of EAN rat model; assay type: in vivo; settings: preventive continuous administration into the subarachnoid space by Micro Infusion Pump from immunization with P2 peptide-adjuvant; male LEW/CrlCrlj rat; FIG. 2
Description: (§1) The effect of P2X4 receptor antagonist on neuropathic pain was examined using an experimental autoimmune neuritis (EAN) rat model (Examples 3 and 4), which has been used as an experimental model for Guillain-Barré syndrome ([…]).
Six-week-old male LEW/CrlCrlj rat was acclimatized for about one week, and an indwelling polystyrene catheter with a 0.30 mm outside diameter was placed into the subarachnoid space. Three days or more after indwelling of the catheter for administration into the subarachnoid space, the rat was anesthetized with isoflurane, and an adjuvant or P2 peptide-adjuvant solution was administered by intradermal tale base injection in an amount of 80 μg/80 μL/rat. The compound A was continuously administered by Micro Infusion Pump (Primetech). The pump was placed at the same time of administration of P2 peptide-adjuvant.

[2] = system: experimental autoimmune neuritis (EAN) rat model; test: Therapeutic administration, pain threshold of EAN rat model; assay type: in vivo; settings: therapeutic administration into the subarachnoid space from thirteen days after immunization (average manifestation score 2 or more); male LEW/CrlCrlj rat; FIG. 3
Description: as §1
Six-week-old male LEW/CrlCrlj rat was acclimatized for about one week, and an indwelling polystyrene catheter with a 0.30 mm outside diameter was placed into the subarachnoid space. Three days or more after indwelling of the catheter for administration into the subarachnoid space, the rat was anesthetized with isoflurane, and an adjuvant or P2 peptide-adjuvant solution was administered by intradermal tale base injection in an amount of 80 μg/80 μL/rat. Micro Infusion Pump was simultaneously placed into the back of the rat, and administration of the vehicle into the subarachnoid space was initiated. After immunization, symptom was observed (Table 2), and change of pain threshold was observed.

O=C1CC(=O)N(c2cccc(-c3nnn[nH]3)c2)c2ccc3ccccc3c2N1.[K] [Compound A, 5-[3-(1H-tetrazol-5-yl)phenyl]-1H-naphtho[1,2-b][1,4]diazepine-2,4(3H,5H)-dione potassium salt]
influence on pain threshold (allodynia) [1]: suppress pains in initial and later manifestations of the disease | influence on pain threshold (analgesic effect) [2]: significant analgesic effect on pain in later manifestation of the disease
